For one test, the system named is DGGCs. In words: GCaMP6f brain slice Ca2+ imaging of DGGCs after sham or CCI-TBI. It counts as cell-based, mice. The source says:
Neuromodulation of TRPC generates robust Ca2+ influx and facilitates neuronal hyperexcitability. […] To assess the post-injury effect of TRPC channel upregulation on neurons, we used Ca2+ imaging in brain slice to measure excitability as a product of intracellular Ca2+ gating by TRPC1/4/5 channels (FIG. 4). […] Transgenic mice with the GCaMP6f transgene were used to detect changes in cellular Ca2+-activated fluorescence. We hypothesized that DGGC activity increases due to muscarinic stimulation with ACh or direct activation of TRPC4-containing channels with EA. Sensitivity was tested by bath perfusion of ACh or EA to the slice for 5 minutes during Ca2+ imaging to quantify peak amplitude of GCaMP6f fluorescence per cell, duration of Ca2+ influx, and the field-frequency of events (FIG. 4).
Brain slice Ca2+ imaging. Transverse slices (300 μm) of hippocampus were cut with a vibratome (Thermo Scientific Microm HM650V) from Cre-CamK2+/GCamp6f+/− mice. […] Hippocampal slices were maintained in oxygenated ACSF at 30° C. for 60 min, and experiments performed at 28° C. […] Neurons were visually identified with a Nikon FN-1 microscope equipped with a 40× water-immersion objective and infrared differential interference contrast. GCaMP6f fluorescence was obtained using a SOLA Light Engine Illumination source (Lumecor) with an output of 3.5W through a 3 mm diameter liquid light guide through a Nikon ET-GFP filter. Nikon Elements software was used for image acquisition through a QIClick CCD camera (Qlmaging) with a Uniblitz Model VMM-D 1 shutter driver. Baseline time series of the DG granule layer were acquired in the presence of bath solution perfusion for 2 min. […] Images were acquired in time series with an exposure time of 200 ms at 2-10 fps at 12-bit rate and no binning. Time-series image stacks were processed with ImageJ. Images were background subtracted using the mean of the 5% lowest pixel values. Ca2+ signal events were quantified for each cell as change in fluorescence divided by the baseline fluorescence (ΔF/FO) after background subtraction. ROI signals were detrended before quantification to account for drift due to gradual photobleaching of the background.

The next test deals with seizure susceptibility. In words: PTZ kindling after sham or CCI-TBI. Conditions: M084 10 mg/kg s.c. 1 hour before each PTZ 35 mg/kg, from 7 days after surgery. The procedure:
The fact that only a portion of TBI cases become susceptible to epileptic seizures is a yet unanswered phenomenon in both preclinical and clinical studies. Therefore, we investigated seizure susceptibility within the CCI-TBI model to gain a greater understanding as to the etiology of hyperexcitability spread occurring post-injury. […] In our seizure susceptibility paradigm, 1 or 7 days after experimental procedure, mice were challenged with a subconvulsant dose of PTZ (35 mg/kg s.c.) once-daily to elicit kindling epileptogenesis (FIG. 6A). The progression of motor seizure behavior was observed and timed by direct observation linked to EEG activity (FIG. 6B).
We wished to understand if the TRPC channel upregulation after TBI could be targeted to impede epileptogenic activity. […] Seizure susceptibility was standardized according to the latency to forelimb clonus lasting greater than 5 sec.
Controlled cortical impact traumatic brain injury. The controlled cortical impact (CCI) traumatic brain injury (TBI) model was applied, with a closed skull impact approach. The CCI model causes TBI, but the skull remains intact with minimal hematoma. This type of brain injury model most closely simulates the TBI experienced during blunt-head injuries from vehicular accidents or falls. Mice were anesthetized with isoflurane (3% induction, 1% maintenance) in 100% O2. Body temperature of 37° C. was maintained using a temperature-controlled heated surgical table. The skull was fixed with ear-bars into a stereotaxic frame. A small midline incision was made on the scalp using aseptic surgical techniques. Impact was delivered by cylindrical probe of 5 mm diameter with an Impact One neurotrauma impactor (Leica Biosystems). A calibrated impact was delivered at 4.5 m/sec to a depth of 1 mm and 0.5 sec dwell time to the right parietal cortex (−1.8 mm ML, +2.0 mm AP, −1.0 mm DV). […] The scalp was then sutured closed and mice were placed in a warming recirculation unit and monitored until fully awake and moving freely. […] For consistency, the left hemisphere of both sham and TBI mice is designated as “contralateral” brain, and the right hemisphere is referred to as “ipsilateral”, despite no impact injury occurring in sham mice.
In vivo electroencephalograms. To determine seizure frequency and record brain susceptibility to seizures, mice were implanted with electroencephalogram (EEG) electrodes 24 hr after sham or TBI. A three-channel tethered EEG system was used. The electrode pedestal (P1 Technologies) was secured to the skull with three anchored dental screws and connected to a preamplifier with gain of 25. The three leads were inserted over the left frontal cortex, left parietal cortex, and depth electrode lead into the hippocampus. The Stellate Harmonie acquisition hardware and software were used to collect coincident video and EEG activity. EEGs were inspected for presence of epileptiform spikes and seizures.
Seizure susceptibility assays. Pentylenetetrazol kindling model. Seizure susceptibility was tested with the GABAA receptor antagonist pentylenetetrazol (PTZ) for progression of motor seizure activity. Mice were injected with PTZ (35 mg/kg, s.c.) once per day and scored for motor behavioral seizures.

With `CCCCNc1nc2ccccc2[nH]1` [M084, N-butyl-1H-benzimidazol-2-amine], the “Ca2+ peak amplitude” value in the test with DGGCs (EA 1 μM + M084 10 μM, ipsilateral DGGCs from TBI mice) is recorded as 1.44±0.05 ΔF/F. The “duration of Ca2+ influx” value in the test with DGGCs (M084 10 μM added to EA 1 μM) is “attenuated the duration of influx to baseline levels”. Besides, in the test on seizure susceptibility, the “days to clonic seizures” value came to 10.6 ± 0.5 days, the “days to demonstrate myoclonic jerks” value worked out at 7.3 ± 0.6 days and the “days to tonic-clonic seizure behavior” value came to 11.0 ± 0.6 days.

Values taken from patent US11878012B2, “Compositions and methods for treating traumatic brain injury” (Board of Regents, the University of Texas System, priority 2020, dated 2024).
